For one assay, the system named is TNFα. In words: Mouse TNF alpha quantification assay (LPS-stimulated RAW 264.7, ELISA). The assay is classed as cell-based. Particulars: RAW264.7, RAW 264.7 macrophage cell line, LPS stimulation 16 h. As to the method:
(§1) Protocol for Mouse TNF Alpha and IL6 Quantification Assay
(§2) Cell lines: Abelson murine leukemia virus transformed macrophage cell line RAW 264.7 was purchased from ATCC and grown in complete DMEM-High Glucose medium supplemented with penicillin (100 U/mL), streptomycin (100 μg/mL), and 10% heat-inactivated FBS at 37° C. in a humidified incubator with 5% CO2.
(§3) Method: Cells were plated at 40000 cells/well density in a 96-wells plate. After a 3-hour incubation, macrophages were starved with DMEM plus 0.5% FBS o/n. The next day the small molecules to be tested were added to the cells in the final concentration of 30 μM (with 0.3% DMSO) 3 hours prior to LPS stimulation (100 ng/ml). After LPS stimulation cells were incubated at 37° C. for 16 h. At the end of the incubation period, culture media were collected and production of LPS-induced TNFα and IL6 cytokine was measured using ELISA detection kits.
(§4) Sandwich ELISA: The ELISA Immunoassays Quantikine Mouse TNF-alpha (catalog number MTA00B) and IL6 (catalog number M6000B) were purchased from R&D Systems Inc., Minneapolis, MN These 4.5 hours solid phase ELISAs were used to measure mouse TNFα or IL6 levels in macrophages culture supernatants. Assays were executed according to the manufacturer specifications.
Background: An ELISA detects its analyte on a solid surface through an enzyme-linked reagent.

The test system of a further assay is IL-6. As to the kind of experiment: Mouse IL6 quantification assay (LPS-stimulated RAW 264.7, ELISA). In kind it is cell-based. Particulars: RAW264.7, RAW 264.7 macrophage cell line, LPS stimulation 16 h. On the procedure: as §1, §2, §3, §4

The inhibition is the change of the read-out against control, counted positive when it falls. Higher therefore signals strong suppression.

As to `Oc1nc(-c2ccccn2)nc2c(-c3ccccc3)csc12`, the inhibition at 30 µM in the assay on TNFα fell in the range of 76 to 100%. `Oc1ccc(C2(c3ccccc3)CCCC2)cc1`: the inhibition at 30 µM with TNFα and in the assay with IL-6 was 76 to 100% in each case. For the compound `Oc1nc(-c2ccccn2)nc2c(-c3ccccc3Cl)csc12`, the inhibition at 30 µM in the assay on TNFα lay within 51 to 75%.

Source of the values: patent US12168668B2, “Compounds for the treatment of cancer and inflammatory disease” (SHY Therapeutics LLC, priority 2015, dated 2024).
